Data on 15 compounds can be found in patent US10017504B2, “Piperidine isoxazole and isothiazole orexin receptor antagonists” (MERCK SHARP & DOHME CORP., priority 2014, dated 2018).

human orexin-2 receptor, sequence (O43614 whole entry): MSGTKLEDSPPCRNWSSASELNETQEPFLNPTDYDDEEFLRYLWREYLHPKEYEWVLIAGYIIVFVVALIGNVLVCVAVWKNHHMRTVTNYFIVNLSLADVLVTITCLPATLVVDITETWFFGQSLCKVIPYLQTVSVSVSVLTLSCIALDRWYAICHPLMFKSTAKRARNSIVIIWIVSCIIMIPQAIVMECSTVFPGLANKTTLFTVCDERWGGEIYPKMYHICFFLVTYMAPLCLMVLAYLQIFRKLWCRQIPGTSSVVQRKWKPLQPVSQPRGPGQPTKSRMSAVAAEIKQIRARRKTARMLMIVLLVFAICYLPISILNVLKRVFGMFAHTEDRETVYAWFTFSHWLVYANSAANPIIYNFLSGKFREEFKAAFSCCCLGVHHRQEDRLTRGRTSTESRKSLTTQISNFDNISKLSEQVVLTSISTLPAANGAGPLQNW

This assay has as its target human orexin-2 receptor (Homo sapiens (Human), UniProt O43614). As to the kind of experiment: FLIPR Ca2+ Flux Assay, orexin-2 receptor. Conditions: CHO cells expressing the human orexin-2 receptor; agonist 70 pM Ala-6,12 human orexin-A; read-out: hOX2 FLIPR IC50. Type of assay: cell-based. Here is the method:
In a typical experiment the OX1 and OX2 receptor antagonistic activity of the compounds of the present invention was determined in accordance with the following experimental method. For intracellular calcium measurements, Chinese hamster ovary (CHO) cells expressing the rat orexin-1 receptor or the human orexin-2 receptor, are grown in Iscove's modified DMEM containing 2 mM L-glutamine, […], 1% hypoxanthine-thymidine supplement, 100 U/ml penicillin, 100 μg/ml streptomycin and 10% heat-inactivated fetal calf serum (FCS). The cells are seeded at 20,000 cells/well into Becton-Dickinson black 384-well clear bottom sterile plates coated with poly-D-lysine. All reagents are from GIBCO-Invitrogen Corp. The seeded plates are incubated overnight at 37° C. and 5% CO2. Ala-6,12 human orexin-A as the agonist is prepared as a 1 mM stock solution in 1% bovine serum albumin (BSA) and diluted in assay buffer (HBSS containing 20 mM HEPES, 0.1% BSA and 2.5 mM probenecid, pH7.4) for use in the assay at a final concentration of 70 pM. Test compounds are prepared as 10 mM stock solution in DMSO, then diluted in 384-well plates, first in DMSO, then assay buffer. On the day of the assay, cells are washed 3 times with 100 μl assay buffer and then incubated for 60 min (37° C., 5% CO2) in 60 μl assay buffer containing 1 μM Fluo-4AM ester, 0.02% pluronic acid, and 1% BSA. The dye loading solution is then aspirated and cells are washed 3 times with 100 μl assay buffer. 30 μl of that same buffer is left in each well. Within the Fluorescent Imaging Plate Reader (FLIPR, Molecular Devices), test compounds are added to the plate in a volume of 25 μl, incubated for 5 min and finally 25 μl of agonist is added. Fluorescence is measured for each well at 1 second intervals for 5 minutes and the height of each fluorescence peak is compared to the height of the fluorescence peak induced by 70 pM Ala-6,12 orexin-A with buffer in place of antagonist. […] The intrinsic orexin receptor antagonist activity of a compound which may be used in the present invention may be determined by these assays.
On to `CCC(C)(O)c1cc([C@@H]2CC[C@@H](C)N(C(=O)c3ccccc3-n3nccn3)C2)on1` (stereo partly drawn) [Example 55, 2-{5-[(3R,6R)-6-Methyl-1-{[2-(2H-1,2,3-triazol-2-yl)phenyl]carbonyl}piperidin-3-yl]isoxazol-3-yl}butan-2-ol], for which the IC50 is 39.8 nM. Consider `C[C@@H]1CC[C@@H](c2cc(C3CCCO3)no2)CN1C(=O)c1ccccc1-n1nccn1` (stereo partly drawn) [Example 56, (2R,5R)-2-Methyl-5-[3-(tetrahydrofuran-2-yl)isoxazol-5-yl]-1-{[2-(2H-1,2,3-triazol-2-yl)phenyl]carbonyl}piperidine], for which the half-inhibitory concentration (IC50) was 311 nM. Next, `COC(C)(C)c1cc([C@@H]2CC[C@@H](C)N(C(=O)c3ccccc3-n3nccn3)C2)on1` [Example 57, (2R,5R)-5-[3-(1-Methoxy-1-methylethyl)isoxazol-5-yl]-2-methyl-1-{[2-(2H-1,2,3-triazol-2-yl)phenyl]carbonyl}piperidine]: 14.4 nM; `C[C@@H]1CC[C@@H](c2cc(C(C)(C)O)sn2)CN1C(=O)c1ccccc1-n1nccn1` [Example 58, 2-{3-[(3R,6R)-6-Methyl-1-{[2-(2H-1,2,3-triazol-2-yl)phenyl]carbonyl}piperidin-3-yl]isothiazol-5-yl}propan-2-ol]: 13.9 nM. Take `C[C@@H]1CC[C@@H](c2cc(C(C)(C)O)sn2)CN1C(=O)c1ccccc1-n1ncnn1` [Example 60, 2-{3-[(3R,6R)-6-Methyl-1-{[2-(2H-tetrazol-2-yl)phenyl]carbonyl}piperidin-3-yl]isothiazol-5-yl}propan-2-ol]: the IC50 came out at 63.8 nM. In the case of `C[C@@H]1CC[C@@H](c2cc(C(C)(C)O)sn2)CN1C(=O)c1ccc(F)cc1-n1nccn1` [Example 61, 2-{3-[(3R,6R)-1-{[4-Fluoro-2-(2H-1,2,3-triazol-2-yl)phenyl]carbonyl}-6-methylpiperidin-3-yl]isothiazol-5-yl}propan-2-ol], the IC50 turned out to be 18.6 nM. With `C[C@@H]1CC[C@@H](c2cc(C(C)(C)O)sn2)CN1C(=O)c1ccccc1C1(C#N)CC1` [Example 62, 1-[2-({(2R,5R)-5-[5-(1-Hydroxy-1-methylethyl)isothiazol-3-yl]-2-methylpiperidin-1-yl}carbonyl)phenyl]cyclopropanecarbonitrile], the IC50 turned out to be 19.1 nM. As for `C[C@@H]1CC[C@@H](c2cc(C(C)(C)O)sn2)CN1C(=O)c1ccccc1-c1ncccn1` [Example 63, 2-(3-{(3R,6R)-6-Methyl-1-[(2-pyrimidin-2-ylphenyl)carbonyl]piperidin-3-yl}isothiazol-5-yl)propan-2-ol], the half-maximal inhibitory concentration (IC50) worked out at 42.3 nM.

As for `C[C@@H]1CC[C@@H](c2cc(C(C)(C)O)sn2)CN1C(=O)c1ccsc1-c1ncccn1` [Example 64, 2-(3-{(3R,6R)-6-Methyl-1-[(2-pyrimidin-2-ylthiophen-3-yl)carbonyl]piperidin-3-yl}isothiazol-5-yl)propan-2-ol], the concentration for half-maximal inhibition (IC50) came out at 36.8 nM. `C[C@@H]1CC[C@@H](c2cc(C(C)(C)O)sn2)CN1C(=O)c1cscc1-c1ncccn1` [Example 65, 2-(3-{(3R,6R)-6-Methyl-1-[(4-pyrimidin-2-ylthiophen-3-yl)carbonyl]piperidin-3-yl}isothiazol-5-yl)propan-2-ol]: the IC50 is 46.8 nM.

As to `C[C@@H]1CC[C@@H](c2cc(C(C)(C)O)sn2)CN1C(=O)c1cscc1-n1nccn1` [Example 66, 2-{3-[(3R,6R)-6-Methyl-1-{[4-(2H-1,2,3-triazol-2-yl)thiophen-3-yl]carbonyl}piperidin-3-yl]isothiazol-5-yl}propan-2-ol], the half-inhibitory concentration (IC50) was found to be 21.1 nM. Take `COC(=O)c1ccccc1C(=O)N1C[C@H](c2cc(C(C)(C)O)sn2)CC[C@H]1C` [Example 67, Methyl 2-({(2R,5R)-5-[5-(1-hydroxy-1-methylethyl)isothiazol-3-yl]-2-methylpiperidin-1-yl}carbonyl)benzoate]: the IC50 turned out to be 43.6 nM. As for `C[C@@H]1CC[C@@H](c2cc(C(C)(C)O)sn2)CN1C(=O)c1ccccc1OC(F)(F)F` [Example 68, 2-{3-[(3R,6R)-6-Methyl-1-{[2-(trifluoromethoxy)phenyl]carbonyl}piperidin-3-yl]isothiazol-5-yl}propan-2-ol], the IC50 was determined as 22.8 nM. Take `C[C@@H]1CC[C@@H](c2cc(C(C)(C)O)sn2)CN1C(=O)c1cccnc1OCC(F)F` [Example 69, 2-{3-[(3R,6R)-1-{[2-(2,2-Difluoroethoxy)pyridin-3-yl]carbonyl}-6-methylpiperidin-3-yl]isothiazol-5-yl}propan-2-ol]: the half-inhibitory concentration (IC50) came out at 42.8 nM. Turning to `COCCc1ccccc1C(=O)N1C[C@H](c2cc(C(C)(C)O)sn2)CC[C@H]1C` [Example 70, 2-{3-[(3R,6R)-1-{[2-(2-methoxyethyl)phenyl]carbonyl}-6-methylpiperidin-3-yl]isothiazol-5-yl}propan-2-ol], the IC50 was 935 nM.
